Reference: patent US8188078B2 (Sanofi-Aventis, priority 2007, dated 2012)

Legend:
[1] = biological target: T1, c-MET (Homo sapiens, UniProt P08581); test: Test A: HTRF Met test in 96-well format; assay type: biochemical
T1 construct: The recombinant DNA His-Tev-MET (956-1390) in pFastBac(Invitrogen); His (N, cleaved yes); Tev (TEV protease site) (N, cleaved yes); made in house; host or cells: SF21 insect cells (baculovirus, pFastBac)
Description: I) Expression and Purification of MET, Cytoplasmic Domain
The recombinant DNA His-Tev-MET (956-1390) in pFastBac(Invitrogen) is transfected in insect cells and after several stages of viral amplification, the final stock of baculovirus is tested for expression of the protein of interest.
After infection for 72 h at 27° C. with the recombinant virus, the SF21 cell cultures are harvested by centrifugation and the cellular deposits are stored at −80° C.
The cellular deposits are resuspended in the lysis buffer (buffer A [50 mM HEPES, pH 7.5, 250 mM NaCl, Glycerol 10%, TECP 1 mM]; +cocktail of protease inhibitors Roche Diagnostics without EDTA, ref 1873580), stirred at 4° C. until homogeneous, then lysed mechanically using apparatus of the “Dounce” type.
After centrifugation, the lysis supernatant is incubated for 2 h at 4° C. with Nickel Chelate resin (His-Trap 6 Fast Flow™, GE HealthCare). After washing with 20 volumes of Tp A, the suspension is packed in a column, and the proteins are eluted with a gradient of buffer B ([…]+290 mM imidazole).
The fractions containing the protein of interest with a view to electrophoretic analysis (SDS PAGE) are collected, concentrated by ultrafiltration (cut-off 10 kDa) and injected in an exclusion chromatography column (Superdex™ 200, GE HealthCare) equilibrated with buffer A.
After enzymatic cleavage of the tag Histidine, the protein is reinjected in a new IMAC Nickel Chelate chromatography column (His-Trap 6 Fast Flow™, GE HealthCare) equilibrated with Buffer A. The fractions eluted with a gradient of buffer B and containing the protein of interest after electrophoresis (SDS PAGE), are finally collected and stored at −80° C.
For the production of autophosphorylated protein, the preceding fractions are incubated for 1 h at room temperature after adding ATP 2 mM, MgCl2 2 mM, and Na3VO4 4 mM. After stopping the reaction with 5 mM of EDTA, the reaction mixture is injected in a HiPrep desalting column (GE HealthCare) equilibrated beforehand with buffer A+Na3VO4 4 mM; the fractions containing the protein of interest (SDS PAGE analysis) are collected and stored at −80° C. The degree of phosphorylation is verified by mass spectrometry (LC-MS), and by peptide mapping.
A) HTRF Met test in 96-well format
In a final volume of 50 μl of enzymatic reaction mixture, final c-MET 5 nM is incubated in the presence of the molecule to be tested (for a final concentration range from 0.17 nM to 10 μM, final DMSO 3%) in buffer MOPS 10 mM pH 7.4, DTT 1 mM, Tween 20 0.01%. The reaction is initiated by the substrate solution to obtain the final concentrations of poly-(GAT) 1 μg/ml, ATP 10 μM and MgCl2 5 mM. After incubation for 10 min at room temperature, the reaction is stopped with a mix of 30 μl to obtain a final solution of Hepes 50 mM pH 7.5, potassium fluoride 500 mM, BSA 0.1% and EDTA 133 mM in the presence of 80 ng Streptavidin 61SAXLB Cis-Bio Int. and 18 ng anti-phosphotyrosine Mab PT66-Europium Cryptate per well. After 2 hours of incubation at room temperature, reading is carried out at 2 wavelengths 620 nm and 665 nm in a reader for the TRACE/HTRF technique and the percentage inhibition is calculated according to the 665/620 ratios.

[2] = system: MKN45 cells; test: Test D: cellular proliferation by 14C-thymidine pulse, MKN45 cells; assay type: cell-based; settings: Homo sapiens, MKN-45, cellular proliferation by 14C-thymidine pulse; cell line not stated (HCT116 or MKN45)
Description: D) Measurement of Cellular Proliferation by 14C-Thymidine Pulse
The cells are sown in Cytostar 96-well plates under 180 μl for 4 hours at 37° C. and 5% CO2: The HCT116 cells at a rate of 2500 cells per well in DMEM medium+10% foetal calf serum+1% of L-glutamine and the MKN45 cells at a rate of 7500 cells per well in RPMI medium+10% foetal calf serum+1% of L-glutamine. After said incubation for 4 hours, the products are added under 10 μl in 20-times concentrated solution according to the method of dilution stated for ELISA. The products are tested at 10 concentrations in duplicate from 10000 nM to 0.3 nM in steps of 3.
After treatment for 72 h, add 10 μl of 14C-thymidine at 10 μCi/ml to obtain 0.1 μCi per well. The incorporation of 14C-thymidine is measured on a Micro-Beta (Perkin-Elmer) after 24 hours of pulse and 96 h of treatment.
All the stages of the test are automated on the BIOMEK 2000 or TECAN stations.

[3] = biological target: RON (Homo sapiens, UniProt Q04912); test: Test B: HTRF RON test in 96-well format; assay type: biochemical
Description: B) HTRF RON Test in 96-Well Format
The inhibitory potency (IC50) of molecules on the enzymatic activity of kinase phosphorylation RON is determined by the HTRF technique. The activity of the kinase is evaluated by measuring the phosphorylation of the substrate polyGAT by the enzyme, in the presence of ATP.
Final RON 5 nM is incubated in the presence of the molecule to be tested (for a final concentration range from 0.17 nM to 10 μM, final DMSO 3%) in buffer MOPS 10 mM pH 7, DTT 1 mM, Tween 20 0.01%. This pre-incubation is performed in 96 half-well black plates in a volume of 35 μl for 30 minutes at room temperature.
The reaction is initiated by adding 15 μl of a mixture of substrates constituted of biotinylated poly-(GAT) 1 μg/ml final and ATP 10 μM final in the presence of MgCl2 5 mM final for a final volume of 50 μl.
After incubation for 30 min at room temperature, the reaction is stopped with 30 μl of a mixture of Hepes 100 mM final pH 7, potassium fluoride 400 mM final, BSA 0.1% and EDTA 133 mM in the presence of 80 ng per well of antibodies Streptavidin ITS-XL665 Cis-Bio Int. and 18 ng per well of anti-phosphotyrosine PT66 labelled with europium cryptate.
After incubation for 2 hours at room temperature, reading is carried out at 2 wavelengths 620 nm and 665 nm in a Genios TECAN reader for the TRACE/HTRF technique and the percentage inhibition is calculated according to the 665/620 ratios.

T1 sequence (P08581 956-1390): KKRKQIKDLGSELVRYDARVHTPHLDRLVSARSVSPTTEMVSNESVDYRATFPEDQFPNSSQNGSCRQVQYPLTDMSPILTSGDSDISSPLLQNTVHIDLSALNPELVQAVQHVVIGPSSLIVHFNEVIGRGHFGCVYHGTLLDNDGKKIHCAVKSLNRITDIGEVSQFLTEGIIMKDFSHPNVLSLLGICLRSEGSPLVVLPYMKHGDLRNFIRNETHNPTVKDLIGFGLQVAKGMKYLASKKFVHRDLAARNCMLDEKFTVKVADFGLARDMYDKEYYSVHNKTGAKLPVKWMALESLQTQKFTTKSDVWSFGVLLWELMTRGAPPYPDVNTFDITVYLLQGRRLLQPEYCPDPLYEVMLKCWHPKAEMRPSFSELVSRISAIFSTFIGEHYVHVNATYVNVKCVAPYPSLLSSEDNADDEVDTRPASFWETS
RON, sequence (Q04912 25-1400): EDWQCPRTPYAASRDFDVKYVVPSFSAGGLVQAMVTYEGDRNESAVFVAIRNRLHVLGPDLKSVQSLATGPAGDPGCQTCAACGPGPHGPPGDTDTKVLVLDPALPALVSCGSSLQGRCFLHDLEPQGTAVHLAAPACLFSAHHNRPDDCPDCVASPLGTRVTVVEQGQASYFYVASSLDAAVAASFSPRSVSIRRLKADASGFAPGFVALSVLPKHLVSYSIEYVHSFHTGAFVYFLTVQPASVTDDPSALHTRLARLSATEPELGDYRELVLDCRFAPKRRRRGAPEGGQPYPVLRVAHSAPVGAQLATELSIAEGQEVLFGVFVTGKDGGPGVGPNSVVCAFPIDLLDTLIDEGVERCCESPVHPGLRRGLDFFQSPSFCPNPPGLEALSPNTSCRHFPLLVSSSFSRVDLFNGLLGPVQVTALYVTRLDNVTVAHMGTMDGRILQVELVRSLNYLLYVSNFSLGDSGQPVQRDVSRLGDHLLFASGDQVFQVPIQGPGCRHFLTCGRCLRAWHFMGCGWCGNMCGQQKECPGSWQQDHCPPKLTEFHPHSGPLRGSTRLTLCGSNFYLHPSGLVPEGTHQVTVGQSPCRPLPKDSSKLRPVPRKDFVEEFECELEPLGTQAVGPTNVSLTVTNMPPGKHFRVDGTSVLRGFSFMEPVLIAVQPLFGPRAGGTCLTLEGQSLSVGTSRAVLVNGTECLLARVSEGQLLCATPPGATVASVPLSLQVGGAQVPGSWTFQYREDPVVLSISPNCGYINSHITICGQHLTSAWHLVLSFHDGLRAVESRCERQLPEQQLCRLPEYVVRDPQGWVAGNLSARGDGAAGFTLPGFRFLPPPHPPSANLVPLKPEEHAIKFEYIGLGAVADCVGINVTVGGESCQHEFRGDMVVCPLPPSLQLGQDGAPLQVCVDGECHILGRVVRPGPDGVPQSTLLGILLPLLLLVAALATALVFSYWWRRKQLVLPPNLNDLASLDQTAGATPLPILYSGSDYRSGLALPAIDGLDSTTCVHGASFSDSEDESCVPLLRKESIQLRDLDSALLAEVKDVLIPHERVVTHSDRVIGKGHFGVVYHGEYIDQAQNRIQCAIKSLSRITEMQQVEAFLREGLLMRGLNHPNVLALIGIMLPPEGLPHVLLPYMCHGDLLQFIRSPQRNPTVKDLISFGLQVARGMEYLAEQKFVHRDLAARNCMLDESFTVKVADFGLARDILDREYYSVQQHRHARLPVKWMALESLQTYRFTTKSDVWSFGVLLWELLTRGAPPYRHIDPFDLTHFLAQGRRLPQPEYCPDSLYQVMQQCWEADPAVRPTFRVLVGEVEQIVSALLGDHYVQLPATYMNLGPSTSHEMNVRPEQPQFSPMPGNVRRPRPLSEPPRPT

Row | SMILES | melting point [°C] | IC50 [1] [µM] | IC50 [2] [µM] | IC50 [3] [µM]
1 | CC(Oc1cc2sc(NC(=O)NCCN3CCCCC3)nc2cc1F)c1c(Cl)ccc(F)c1Cl (centres unmarked) [Example 80, 1-{6-[1-(2,6-dichloro-3-fluorophenyl)ethoxy]-5-fluoro-1,3-benzothiazol-2-yl}-3-[2-(piperidin-1-yl)ethyl]urea] | 186 to 195 | < 0.1 | 0.5 to 10 | 0.5 to 10
2 | CC(Oc1ccc2nc(NC(=O)NCCN3CCOCC3)sc2c1)c1cc(F)cc(F)c1 (centres unmarked) [Example 62, 1-{6-[1-(3,5-difluorophenyl)ethoxy]-1,3-benzothiazol-2-yl}-3-(2-morpholin-4-ylethyl)urea] | 179 | 0.1 to 10 | > 10 | 0.5 to 10
3 | CC(Oc1ccc2nc(NC(=O)NCCN3CCOCC3)sc2c1)c1ccccc1 (centres unmarked) [Example 14, 1-(2-morpholin-4-ylethyl)-3-[6-(1-phenylethoxy)-1,3-benzothiazol-2-yl]urea] | 161 | 0.1 to 10 | > 10 | 0.5 to 10
4 | CC(Oc1cc2sc(N)nc2cc1F)c1c(Cl)ccc(F)c1Cl (centres unmarked) [Example 30, 6-[1-(2,6-dichloro-3-fluorophenyl)ethoxy]-5-fluoro-1,3-benzothiazol-2-amine] | 223 | < 0.1 | > 10 | 0.5 to 10

The next lines start with the values.

Row | melting point [°C] | IC50 [1] [µM] | IC50 [2] [µM] | IC50 [3] [µM] | SMILES
5 | 219 | < 0.1 | > 10 | 0.5 to 10 | O=C(NCCN1CCOCC1)Nc1nc2ccc(OCc3c(F)cccc3F)cc2s1 [Example 13, 1-{6-[(2,6-difluorobenzyl)oxy]-1,3-benzothiazol-2-yl}-3-(2-morpholin-4-ylethyl)urea]
6 | 256 to 259 | < 0.1 | > 10 | 0.5 to 10 | O=C(NCCN1CCOCC1)Nc1nc2ccc(OCc3c(Cl)cccc3Cl)cc2[nH]1 [Example 1, 1-{6-[(2,6-dichlorobenzyl)oxy]-1H-benzimidazol-2-yl}-3-(2-morpholin-4-ylethyl)urea]
7 | 162 to 166 | < 0.1 | > 10 | 0.5 to 10 | O=C(NCCCN1CCOCC1)Nc1nc2ccc(OCc3c(Cl)cccc3Cl)cc2s1 [Example 11, 1-{6-[(2,6-dichlorobenzyl)oxy]-1,3-benzothiazol-2-yl}-3-(3-morpholin-4-ylpropyl)urea]
8 | 210 | < 0.1 | 0.5 to 10 | 0.5 to 10 | O=C(NCCN1CCOCC1)Nc1nc2ccc(OCc3c(F)cccc3Cl)cc2s1 [Example 15, 1-{6-[(2-chloro-6-fluorobenzyl)oxy]-1,3-benzothiazol-2-yl}-3-(2-morpholin-4-ylethyl)urea]
